Data published in patent US20090169648A1, “COMPOSITIONS TO REDUCE BLOOD GLUCOSE LEVELS AND TREAT DIABETES” (Astrum Therapeutics Pty Ltd, priority 2006, published 2009).
Like-named read-outs stand apart in the source and are kept apart here.

Assays:
T2DM patients [1] = settings: 200 μg twice daily, three weeks, cited from earlier work
T2DM patients [2] = settings: 200 μg twice daily, 12 weeks, versus placebo; cited from earlier work
humans [3] = settings: cited from earlier work
DM patients = settings: cited from earlier work
humans [4] = settings: exposure of humans; cited from earlier work
humans [5] = settings: seven clinical trials; cited from earlier work
[6] = tested on: Fatty diabetic Zucker rats; assay: Fatty diabetic Zucker rats, 4-week diets, fasting glucose; format: in vivo, rat; settings: diet for 4 weeks
Method: Fatty diabetic Zucker rats were separated into three groups to receive three diets for 4 weeks: a) 1% Mg in diet (5 times higher than control diet); b) a combination including 2 g/L of vitamin C in drinking water, 2.5% of KM in diet, 400 mg/kg of α-LA; c) Comp1 that includes 1% of Mg in diet, 2 g/L of vitamin C in drinking water, 2.5% of KM in diet, 400 mg/kg of α-LA.
No change in the level of fasting glucose level vs baseline was observed by the administration of Mg. 17% reduction of glucose vs baseline was observed by the combination of Vitamin C, KM and α-LA. 28% reduction of glucose vs baseline was observed by Comp1 (the combination of Vitamin C, KM and α-LA with Mg salt)

[7] = tested on: timed-pregnant Sprague-Dawley rats; settings: rat, in vivo; cited from earlier work

Chromium picolinate [CrPic]
reduction in glucose versus baseline (T2DM patients [1]; T2DM patients): −21%
change in cholesterol versus baseline (T2DM patients [1]): −9.4%
change in triglycerides versus baseline (T2DM patients [1]): −10.5%
glycated hemoglobin (HbA1C) after treatment (T2DM patients [1]; from 8.2% at baseline): 7.6%
improvement in fasting glucose (T2DM patients [2]): 0.44 mM
improvement in post-prandial serum glucose (T2DM patients [2]): 1.97 mM

O=C(O)CCCCC1CCSS1 (stereo not drawn) [α-LA, Alpha-lipoic acid]
reduction of fasting glucose level (humans [3]; lean T2DM patients): ~15%
reduction of fasting glucose level (humans [3]; patients with diabetic neuropathy): 18%
effect on glucose levels (humans [3]; two clinical trials): no effect
decrease of levels of peroxides (DM patients): 34%

OCCNCCO [diethanolamine]
individuals developing asthma (humans [4]): 0.6%

[Cl-].[Cl-].[Mg+2] [Mg, Magnesium Chloride]
effect on glucose levels (humans [5]): failed to show reduced glucose levels
reduction of fasting glucose level vs baseline [6]: No change

CCN(CC)CCO [diethylethanolamine]
reduction of body weight [7]: 9.5%
reduction of weight gain [7]: 48%
